The target in one assay is T1, TET1 (Homo sapiens, UniProt Q8NFU7).
T1 construct: purchased Bioscience 50651
In words: Chemiluminescence ELISA of TET1-mediated oxidation of methylated DNA. In kind it is biochemical. The following applies: for TET1 inhibition (in words): compound at 100 μM in ELISA. On the procedure:
To determine whether cytosine analogs inhibited TET-mediated oxidation of methylated DNA, the amount of hydroxymethylcytosine in reactions containing TET enzyme alone or TET enzyme and a cytosine analog were determined using chemiluminescence ELISA assays.
Procedure adapted from manual (Bioscience; TET1: 50651, TET2: 50652). Prepare TBST buffer (1× TBS, pH 8.0, containing 0.05% Tween-20). Dilute 4.0× TET Assay Buffer (TAB) to 1.5× TAB and 1.0× TAB evenly with diluted water. Thaw and dilute (5.0 ng/μl for TET1 and 10 ng/μl for TET2) TET enzyme from kit with 1.0× TAB. Dilute primary antibody 100-fold with blocking buffer. Diluted secondary antibody 1000-fold with blocking buffer. Dilute DMSO inhibitor solutions with 1.0× TAB to wanted concentration (ensure solutions are 5% DMSO). To 96-well plate provided, add 200 μl TBST buffer to each well and incubate at room temperature for 15 min. Remove TBST buffer and add 20 μl 1.5× TAB, 10 μl inhibitor solution, 20 μl diluted TET to each well. For controls, add 10 μl 5% DMSO solution and 20 μl 1.0× TAB. Incubate at room temperature for 2 h. Remove reaction solution and wash 3× with TBST buffer (200, 200, and 100 μl). Add 100 μl […] diluted primary antibody and shake at room temperature for 1 h. Remove diluted primary antibody and wash 3× with TBST buffer (200, 200, and 100 μl). Add 100 μl blocking buffer to each well and shake at room temperature for 10 min. Remove blocking buffer. Add 100 μl diluted secondary antibody. Shake at room temperature for 30 min. Remove diluted secondary antibody and wash 3× with TBST buffer (200, 200, and 100 μl). Add 100 μl blocking buffer to each well and shake at room temperature for 10 min. Remove blocking buffer. Combine horseradish peroxidase (HRP) substrate A and HRP substrate B at 1:1 ratio. Add 100 μl of HRP solution to each well. Immediately, read chemiluminescence (BioTek Synergy 2 plate reader).
Background: In an ELISA, binding on a coated surface is turned into a signal by an enzyme label.

Another assay concerns DNMT3a. Briefly: Inhibitory assay for DNMT3a. In kind it is biochemical. The following applies: concentration of 500 μM.
For a further assay, the system named is HT22 cells. In words: Whole genome bisulfite sequencing in HT22 cells. The following applies: 10 μM, 24 hours. In kind it is cell-based, mouse. As for the experimental part: Whole genome bisulfite sequencing in HT22 cells was performed. […] Generally, the genome was broken into windows each containing 25 CpGs, and an analysis was performed to determine differentially methylated regions. […] Additionally, the differentially methylated regions (DMRs) were highly associated with DMRs detected for those Tet gene deficient cells/tissue.
HT-22 cells were provided by David Schubert at the Salk Institute (San Diego, Calif.). Cells were cultured in Dulbecco's Modified Eagle Medium (Life Technologies, Carlsbad, Calif.) supplemented with 10% FBS, 100 U/ml penicillin, and 100 μg/ml streptomycin (Life Technologies, Carlsbad, Calif.) at 37° C. and 5% CO2. […]
Cells were lysed and gDNA was extracted (Qiagen, DNeasy), bisulfite converted (Accel-NGS Methyl-Seq DNA Library, Swift), and sequenced (Hudson Alpha Discovery) on the Illumina platform (HiSeq_X10, paired end, 150 bp, 500 million reads per sample). Reads were QC'd by FastQC (v0.11.5), filtered by quality (average quality score <20), Illumina adapters removed, and sequencing primers trimmed using Trim_Galore! […] The filtered and trimmed reads were then mapped to the mouse genome (mm10), deduplicated, and CpG methylation levels extracted using Bismark (v0.19.0). Altered CpG methylation was determined by dividing the mouse genome into ˜850,000 windows, each containing 25 CpG sites. […]

The target in another assay is T2, TET2 (Homo sapiens, UniProt Q6N021).
T2 construct: purchased Bioscience 50652
In words: Chemiluminescence ELISA of TET2-mediated oxidation of methylated DNA. In kind it is biochemical. The note with it: dose-response.

Usually IC50 stands for the midpoint of a concentration-inhibition curve.

Structures are written as SMILES. Entries after “also recorded” stand apart in the source; their conditions may differ.

T1 sequence (Q8NFU7 whole entry): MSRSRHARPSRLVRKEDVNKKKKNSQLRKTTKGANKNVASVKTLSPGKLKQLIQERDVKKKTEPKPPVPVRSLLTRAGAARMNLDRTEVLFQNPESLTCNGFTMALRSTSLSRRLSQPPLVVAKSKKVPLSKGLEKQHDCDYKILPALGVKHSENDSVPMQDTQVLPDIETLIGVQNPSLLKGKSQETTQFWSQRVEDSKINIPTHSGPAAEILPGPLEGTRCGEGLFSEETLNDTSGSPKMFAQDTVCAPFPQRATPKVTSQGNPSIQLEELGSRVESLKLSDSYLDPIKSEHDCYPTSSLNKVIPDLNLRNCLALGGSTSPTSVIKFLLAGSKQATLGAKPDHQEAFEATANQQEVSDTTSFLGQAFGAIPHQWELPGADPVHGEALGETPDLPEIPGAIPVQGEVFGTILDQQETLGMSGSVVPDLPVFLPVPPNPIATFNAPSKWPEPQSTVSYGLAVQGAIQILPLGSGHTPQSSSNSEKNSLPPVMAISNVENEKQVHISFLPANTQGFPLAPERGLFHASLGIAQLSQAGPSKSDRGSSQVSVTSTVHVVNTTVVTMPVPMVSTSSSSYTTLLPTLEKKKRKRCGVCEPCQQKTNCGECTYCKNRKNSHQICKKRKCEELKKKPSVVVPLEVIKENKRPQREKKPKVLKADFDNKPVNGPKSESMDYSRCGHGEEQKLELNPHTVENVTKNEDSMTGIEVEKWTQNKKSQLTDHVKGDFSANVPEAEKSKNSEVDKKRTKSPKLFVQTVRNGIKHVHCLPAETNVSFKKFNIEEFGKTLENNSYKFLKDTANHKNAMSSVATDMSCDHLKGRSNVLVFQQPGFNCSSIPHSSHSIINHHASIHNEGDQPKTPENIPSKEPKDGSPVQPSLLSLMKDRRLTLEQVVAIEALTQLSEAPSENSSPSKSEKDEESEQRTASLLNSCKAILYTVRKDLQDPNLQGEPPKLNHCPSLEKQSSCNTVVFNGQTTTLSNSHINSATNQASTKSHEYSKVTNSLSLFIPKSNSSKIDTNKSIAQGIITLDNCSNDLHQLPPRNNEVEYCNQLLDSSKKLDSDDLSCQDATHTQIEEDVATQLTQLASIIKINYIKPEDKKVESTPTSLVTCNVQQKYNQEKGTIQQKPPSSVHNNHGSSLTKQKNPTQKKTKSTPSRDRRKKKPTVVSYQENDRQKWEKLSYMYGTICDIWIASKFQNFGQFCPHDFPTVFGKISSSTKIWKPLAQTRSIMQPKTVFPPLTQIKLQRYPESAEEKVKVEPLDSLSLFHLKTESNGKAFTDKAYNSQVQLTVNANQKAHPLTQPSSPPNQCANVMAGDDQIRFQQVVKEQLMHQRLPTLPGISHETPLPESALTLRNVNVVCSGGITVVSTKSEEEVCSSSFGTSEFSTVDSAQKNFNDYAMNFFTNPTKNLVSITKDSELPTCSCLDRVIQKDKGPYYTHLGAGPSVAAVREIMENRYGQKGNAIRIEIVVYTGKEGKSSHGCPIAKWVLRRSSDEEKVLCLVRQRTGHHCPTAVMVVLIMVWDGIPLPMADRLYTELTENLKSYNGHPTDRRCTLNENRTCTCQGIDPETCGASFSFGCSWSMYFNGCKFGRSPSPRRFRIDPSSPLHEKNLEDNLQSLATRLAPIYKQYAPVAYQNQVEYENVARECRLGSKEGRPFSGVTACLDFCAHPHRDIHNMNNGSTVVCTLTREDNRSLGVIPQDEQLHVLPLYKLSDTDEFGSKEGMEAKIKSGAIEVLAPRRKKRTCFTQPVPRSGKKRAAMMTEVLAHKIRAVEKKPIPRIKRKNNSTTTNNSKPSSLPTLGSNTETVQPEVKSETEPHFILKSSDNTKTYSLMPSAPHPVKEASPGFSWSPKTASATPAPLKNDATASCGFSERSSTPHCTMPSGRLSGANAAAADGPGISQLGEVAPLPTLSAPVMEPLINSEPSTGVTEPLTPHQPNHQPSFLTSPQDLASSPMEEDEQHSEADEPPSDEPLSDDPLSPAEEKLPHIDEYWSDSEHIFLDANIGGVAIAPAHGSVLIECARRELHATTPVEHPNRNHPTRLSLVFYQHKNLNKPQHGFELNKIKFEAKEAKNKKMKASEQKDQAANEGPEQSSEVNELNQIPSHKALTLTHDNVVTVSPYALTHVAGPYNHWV
Experimental for TET2: Procedure adapted from manual (Bioscience; TET1: 50651, TET2: 50652). Prepare TBST buffer (1× TBS, pH 8.0, containing 0.05% Tween-20). […] Dilute primary antibody 100-fold with blocking buffer. Diluted secondary antibody 1000-fold with blocking buffer. […] To 96-well plate provided, add 200 μl TBST buffer to each well and incubate at room temperature for 15 min. Remove TBST buffer and add 20 μl 1.5× TAB, 10 μl inhibitor solution, 20 μl diluted TET to each well. For controls, add 10 μl 5% DMSO solution and 20 μl 1.0× TAB. Incubate at room temperature for 2 h. Remove reaction solution and wash 3× with TBST buffer (200, 200, and 100 μl). Add 100 μl blocking buffer 53 μl diluted primary antibody and shake at room temperature for 1 h. Remove diluted primary antibody and wash 3× with TBST buffer (200, 200, and 100 μl). Add 100 μl blocking buffer to each well and shake at room temperature for 10 min. Remove blocking buffer. Add 100 μl diluted secondary antibody. Shake at room temperature for 30 min. […] Immediately, read chemiluminescence (BioTek Synergy 2 plate reader).

With `Nc1nc(=O)n(-c2ccccc2-c2ccccc2)cc1Cl` [Bobcat337, 1-([1,1′-biphenyl]-2-yl)-4-amino-5-chloropyrimidin-2(1H)-one], on TET1, the “TET1 inhibition (in words)” value is “significantly reduced TET1 inhibition”.
Turning to `Nc1nc(=O)n(-c2cccc(-c3ccccc3)c2)cc1Cl` [Bobcat339, 1-([1,1′-biphenyl]-3-yl)-4-amino-5-chloropyrimidin-2(1H)-one], the “TET1 inhibition (in words)” value on TET1 was “significantly enhanced activity”. The “TET1 inhibition (in words)” value at TET1 (listed as 3-biphenyl) is listed as “significantly increased TET1 inhibition”. Moreover, the half-maximal inhibitory concentration (IC50) at TET1 (dose-response, N=3) was 33 µM. For the same molecule, the “inhibition of DNMT3a” value in the assay on DNMT3a is given as “failing to show substantial inhibition; also recorded: but not DNMT3a”. Also, in the assay with HT22 cells, the “differentially methylated regions (windows of 25 CpGs)” value was “A thousand such regions were observed, most of which are hypermethylated” and the “global CpG methylation” value is on record as “significant change in global CpG methylation”.
On TET2, `Nc1nc(=O)n(-c2ccccc2)cc1Cl` [Bobcat216, 4-amino-5-chloro-1-phenylpyrimidin-2(1H)-one] displayed a half-inhibitory concentration (IC50) of 98 µM.
Turning to `Nc1nc(=O)n(-c2ccc(-c3ccccc3)cc2)cc1Cl` [Bobcat219, 1-([1,1′-biphenyl]-4-yl)-4-amino-5-chloropyrimidin-2(1H)-one], the “TET1 inhibition (in words)” value at TET1 is on record as “significantly reduced TET1 inhibition”.

(Values after patent publication US11504369B2, “Cytosine-based TET enzyme inhibitors” (President and Trustees of Bates College, priority 2019, dated 2022).)
